Broadly, the inhibition is how much of the control response was suppressed.

Results on eleven compounds are retold here after PMC9732823, “Discovery of Dual Aβ/Tau Inhibitors and Evaluation of Their Therapeutic Effect on a Drosophila Model of Alzheimer’s Disease” (ACS Chemical Neuroscience, 2022).

The test system of series [1] is cerebellar granule neurons (CGNs). The experiment in a line: Neurotoxicity on primary cultures of cerebellar granule neurons (nuclei counting after Hoechst staining). The conditions noted are these: differentiated CGNs, 24 h, percentage of healthy nuclei on total nuclei, mean ± SEM of three experiments.
The target of the next series is T1, Tau protein (Homo sapiens, UniProt P10636).
T1 construct: expressed in transfected cells; host or cells: Escherichia coli BL21 (DE3) with pTARA and pRKT42
T1 sequence (P10636 1-441 isoform P10636-8): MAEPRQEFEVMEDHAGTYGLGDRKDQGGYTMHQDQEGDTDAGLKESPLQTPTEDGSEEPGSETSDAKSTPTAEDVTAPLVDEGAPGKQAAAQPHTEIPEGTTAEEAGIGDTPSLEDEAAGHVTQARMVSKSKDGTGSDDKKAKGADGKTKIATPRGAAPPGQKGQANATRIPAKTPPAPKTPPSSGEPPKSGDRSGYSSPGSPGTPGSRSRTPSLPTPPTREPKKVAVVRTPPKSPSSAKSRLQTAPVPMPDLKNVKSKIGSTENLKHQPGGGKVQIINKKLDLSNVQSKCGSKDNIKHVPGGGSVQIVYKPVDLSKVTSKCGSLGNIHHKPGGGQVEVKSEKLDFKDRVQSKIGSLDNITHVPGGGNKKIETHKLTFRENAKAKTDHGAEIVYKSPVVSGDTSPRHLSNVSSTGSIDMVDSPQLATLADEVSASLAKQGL
As to the kind of experiment: Inhibition of Tau aggregation in intact E. coli cells overexpressing Tau (ThS fluorescence). It is filed as cell-based, Escherichia coli. The following applies: for inhibition at 10 µM: read-out: % inhibition Tau aggregation @ 10 μM, intact E. coli cells, compound 10 μM, mean ± SEM of four independent experiments; for % inhibition Tau aggregation @ 10 μM: intact E. coli cells, compound 10 μM, mean ± SEM of four independent experiments. The source says:
(§1) As it would have been labor-intensive and expensive to screen such a number of compounds in two separate antiaggregating studies using recombinant Aβ and Tau, we turned our attention to a simple model of protein aggregation, namely, the intact Escherichia coli (E. coli) cells overexpressing Aβ42 and Tau proteins.[28],[29] Building on the fact that inclusion bodies produced by overexpression of these proteins in E. coli mainly consist of fibrillar aggregates, this simple screening method uses bacteria as an in vivo reservoir for tracking the inhibition of amyloid-type protein aggregation in real time, using the amyloid dye thioflavin S (ThS). Of note, this screening has already been used for the evaluation of libraries of antiaggregating compounds.[28]−[38]
E. coli BL21 (DE3) competent cells were transformed with pTARA containing the RNA-polymerase gen of the T7 phage (T7RP) under the control of the promoter PBAD. E. coli BL21 (DE3) with pTARA competent cells were transformed with the pRKT42 vector encoding four repeats of Tau protein in two inserts. For overnight culture preparation, 10 mL of M9 medium containing 0.5% of glucose, 100 μg·mL^–1 ampicillin, and 12.5 μg·mL^–1 chloramphenicol were inoculated with a colony of BL21 (DE3) bearing the plasmids to be expressed at 37 °C. For expression of Tau protein, the required volume of overnight culture to obtain 1:500 dilution was added to fresh M9 minimal medium containing 0.5% of glucose, 50 μg·mL^–1 ampicillin, 12.5 μg·mL^–1 chloramphenicol, and 25 μM ThS. The bacterial culture was grown at 37 °C and 250 rpm. When the cell density reached ABS600 nm= 0.6, an amount of 980 μL of culture was transferred into Eppendorf tubes of 1.5 mL with 10 μL of each compound to be tested in DMSO and 10 μL of arabinose at 25%. The final concentration of the drug was fixed at 10 μM. The samples were grown overnight at 37 °C and 1400 rpm using a thermomixer (Eppendorf, Hamburg, Germany). As the control of maximal amyloid presence, the same amount of DMSO without the drug was added to the sample. In parallel, noninduced samples (in the absence of arabinose) were also prepared and used as controls for the amyloid absence. In addition, the absorbance at 600 nm of the samples was checked to assess the potential intrinsic toxicity of the compounds and to confirm the correct bacterial growth.
(§2) ThS (T1892) and other chemical reagents were purchased from Sigma (St. Louis, MO). ThS stock solution (25 mM) was prepared in double-distilled water purified through a Milli-Q system (Millipore). For the fluorescence assay, the ThS spectra were measured on an AMINCO-Bowman series 2 luminescence spectrophotometer (Aminco-Bowman AB2, SLM Aminco, Rochester, NY) from 460 to 600 nm at 25 °C using an excitation wavelength of 440 nm and slit widths of 4 nm. The emission at 485 nm (fluorescence peak of ThS in the presence of amyloids) was recorded. To normalize the ThS fluorescence as a function of the bacterial concentration, ABS600nm was obtained using a Shimadzu UV-2401 PC UV–Vis spectrophotometer (Shimadzu, Japan). Note that the fluorescence normalization was carried out considering as 100% the ThS fluorescence of the bacterial cells expressing the peptide or protein in the absence of the drug and 0% the ThS fluorescence of the bacterial cells nonexpressing the peptide or protein.

The target in a further series is T2, Aβ42 (Homo sapiens, UniProt P05067).
T2 construct: expressed in transfected cells; host or cells: Escherichia coli BL21 (DE3), pET28a
T2 sequence (P05067 672-713 limits assumed): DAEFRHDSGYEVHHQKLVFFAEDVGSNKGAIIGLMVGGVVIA
The experiment in a line: Inhibition of Aβ42 aggregation in intact E. coli cells overexpressing Aβ42 (ThS fluorescence). The format is cell-based, Escherichia coli.
Source text: as §1
Escherichia coli competent cells BL21 (DE3) were transformed with the pET28a vector (Novagen, Inc., Madison, WI) carrying the DNA sequence of Aβ42. Because of the addition of the initiation codon ATG in front of both genes, the overexpressed peptide contains an additional methionine residue at its N terminus. For overnight culture preparation, an amount of 10 mL of M9 minimal medium containing 50 μg·mL^–1 kanamycin was inoculated with a colony of BL21 (DE3) bearing the plasmid to be expressed at 37 °C. For expression of the Aβ42 peptide, the required volume of overnight culture to obtain 1:500 dilution was added into fresh M9 minimal medium containing 50 μg·mL^–1 kanamycin and 250 μM ThS. The bacterial culture was grown at 37 °C and 250 rpm. When the cell density reached ABS600 nm = 0.6, an amount of 980 μL of culture was transferred into Eppendorf tubes of 1.5 mL with 10 μL of each compound to be tested in DMSO and 10 μL of isopropyl 1-thio-β-D-galactopyranoside (IPTG) at 100 mM. The final concentration of the drug was fixed at 10 μM. The samples were grown overnight at 37 °C and 1400 rpm using a thermomixer (Eppendorf, Hamburg, Germany). As the control of the amyloid presence (maximal amyloid presence), the same amount of DMSO without the drug was added to the sample. In parallel, noninduced samples (in the absence of IPTG) were also prepared and used as controls of the non-amyloid presence. In addition, the absorbance at 600 nm of the samples was checked to assess the potential intrinsic toxicity of the compounds and to confirm the correct bacterial growth.
as §2

The mark [2] stands for this setting: read-out: % inhibition Aβ42 aggregation @ 10 μM, intact E. coli cells, compound 10 μM, mean ± SEM of four independent experiments.

Each structure is given as a SMILES string. Read-outs that look alike come from different tables or passages of the source.

For the compound `O=C1NC(=O)/C(=C/c2ccc(/C=C3\SC(=O)NC3=O)cc2)S1` [Compound 1, (5Z,5′Z)-5,5′-(1,4-Phenylenebis(methanylylidene))bis(thiazolidine-2,4-dione)], in series [1], the “% survival neurotoxicity @ 10 μM” value amounted to 77.6 ± 6.1%. For the same compound, the figures for the inhibition at 10 µM at Tau protein and at Aβ42 (setting [2]) were 19.4 ± 3.6% and 25.4 ± 1.9%, respectively.
On the same counts, the results for `O=C1NC(=O)/C(=C/c2ccc(-c3ccc(/C=C4\SC(=O)NC4=O)cc3)cc2)S1` [Compound 2, (5Z,5′Z)-5,5′-([1,1′-Biphenyl]-4,4′-diylbis(methanylylidene))bis(thiazolidine-2,4-dione)] are 81.3 ± 6.5%, 16.5 ± 3.1% and 20.2 ± 2.1%.
The matching figures for `O=C1NC(=O)/C(=C/c2ccc(Cc3ccc(/C=C4\SC(=O)NC4=O)cc3)cc2)S1` [Compound 3, (5Z,5′Z)-5,5′-((Methylenebis(4,1-phenylene))bis(methanylylidene))bis(thiazolidine-2,4-dione)]: 62.4 ± 9.6%, 5.2 ± 2.7% and 12.9 ± 3.4%.
For the compound `O=C1NC(=O)/C(=C/c2ccc3[nH]c4ccc(/C=C5\SC(=O)NC5=O)cc4c3c2)S1` [Compound 4, (5Z,5′Z)-5,5′-((9H-Carbazole-3,6-diyl)bis(methanylylidene))bis(thiazolidine-2,4-dione)], the “% survival neurotoxicity @ 10 μM” value in series [1] was found to be 73.4 ± 5.1%. Moreover, the inhibition at 10 µM on Tau protein is 21.2 ± 2.6%; on Aβ42 (setting [2]), 24.7 ± 4.1%.
On the same counts, the results for `CC1(C)c2cc(/C=C3\SC(=O)NC3=O)ccc2-c2ccc(/C=C3\SC(=O)NC3=O)cc21` [Compound 5, (5Z,5′Z)-5,5′-((9,9-Dimethyl-9H-fluorene-2,7-diyl)bis(methanylylidene))bis(thiazolidine-2,4-dione)] are 67.9 ± 5.4%, 14.8 ± 3% and 23.6 ± 2.6%.
Regarding `O=C1NC(=O)/C(=C/c2ccc(-c3ccc(/C=C4\SC(=O)NC4=O)s3)s2)S1` [Compound 6, (5Z,5′Z)-5,5′-([2,2′-Bithiophene]-5,5′-diylbis(methanylylidene))bis(thiazolidine-2,4-dione)], the “% survival neurotoxicity @ 10 μM” value in series [1] amounted to 89.9 ± 1.2%. In addition, the “% inhibition Tau aggregation @ 10 μM” value at Tau protein (10 µM) is reported as 19.4 ± 3.9%. Besides, the inhibition at 10 µM at Tau protein is less than 20%; at Aβ42 (setting [2]), 42.4 ± 4.5%.
Consider `CCOC(=O)CN1C(=O)S/C(=C\c2ccc(-c3ccc(/C=C4\SC(=O)N(CC(=O)OCC)C4=O)cc3)cc2)C1=O` [Compound 8, Diethyl 2,2′-((5Z,5′Z)-([1,1′-biphenyl]-4,4′-diylbis(methanylylidene))bis(2,4-dioxothiazolidin-3-yl-5-ylidene))diacetate], for which the “% survival neurotoxicity @ 10 μM” value in series [1] was found to be 87.2 ± 3.1%. Moreover, the inhibition at 10 µM at Tau protein amounted to 18.1 ± 3.2%; at Aβ42 (setting [2]), 14.3 ± 3.5%.
On the same counts, the results for `CCOC(=O)CN1C(=O)S/C(=C\c2ccc(Cc3ccc(/C=C4\SC(=O)N(CC(=O)OCC)C4=O)cc3)cc2)C1=O` [Compound 9, Diethyl 2,2′-((5Z,5′Z)-((methylenebis(4,1-phenylene))bis(methanylylidene))bis(2,4-dioxothiazolidin-3-yl-5-ylidene))diacetate] are 88.7 ± 4.1%, 19.9 ± 3.6% and 14.5 ± 4.1%.
Consider `CC1=CC2Cc3nc4cc(Cl)ccc4c(NCCCCCCCNc4c5c(nc6ccccc46)CCCC5)c3C(C1)C2` (centres unmarked) [HUP7TH, reference compound], for which the “% inhibition Tau aggregation @ 10 μM” value on Tau protein was 69.5 ± 1.6%. In addition, the “% inhibition Aβ42 aggregation @ 10 μM” value on Aβ42 (intact E. coli cells, compound 10 μM, mean ± SEM of four independent experiments) was 77.6 ± 1.5%.
As for `CC1=CC2Cc3nc4cc(Cl)ccc4c(N)c3C(C1)C2` (centres unmarked) [Huprine Y, huprine Y, reference compound], the inhibition at 10 µM on Aβ42 (read-out: % inhibition Aβ42 aggregation @ 10 μM) was determined as 4.6 ± 2.3%.
Turning to `O=C(O)c1cc(O)c2c(c1)C(=O)c1cccc(O)c1C2=O` [Rhein, rhein, reference compound], at Tau protein, the inhibition at 10 µM came out at 39.2 ± 2.1%.
